Here are results for one compound from US9233143B2, “Medicinal agent for preventing exacerbation of malignant tumor, comprising combination of natriuretic peptide receptor GC-A and GC-B agonists” (National Cerebral and Cardiovascular Center, priority 2011, dated 2016).

In the assay the test system is A549 cells and CAFs. Put plainly: Mouse models having transplanted cancer cells and CAFs, administration started after tumor tissue was established (Example 6). It counts as in vivo. Particulars: hANP alone 0.5 μg/kg/min, started 2 weeks after transplantation, 4 weeks, FIG. 10. As for the experimental part: In this Example and Example 6, 5-week-old male immunodeficient mice (KSN mice, Japan SLC, Inc.) were used. The osmotic pumps used were MODEL2004 (for 28-day administration) made by ALZET (Cupertino, Calif.). A mixed suspension of the A549 cells and the CAFs was prepared using DMEM free from FBS so as to contain the A549 cells at 1×10^6 cells/100 μL and the CAFs at 0.5×10^6 cells/100 μL. The mixed suspension in an amount of 100 μL per mouse was subcutaneously injected in the back of the immunodeficient mice. […] After 2 weeks of observation from the injection of the cell suspension, the mice to which the mixed suspension had been injected were randomly divided into 4 groups (control group, ANP group, CNP group, and ANP+CNP group), and an osmotic pump appropriately adjusted for each group as shown below was subcutaneously implanted to start administration. • Control group and A549 group: physiological saline was administered • ANP group: hANP was administered at 0.5 μg/kg/min • CNP group: hCNP-22 was administered at 2.5 μg/kg/min • ANP+CNP group: hANP was administered at 0.5 μg/kg/min and hCNP-22 was administered at 2.5 μg/kg/min Observation was further continued for 4 weeks after the start of administration, the tumor size at the cell injection site was measured weekly, and tumor volume was calculated in the same way as in Example 5 (FIG. 10).

The structures appear in SMILES notation.

As to `CC[C@H](C)[C@@H]1NC(=O)[C@H](CCCNC(=N)N)NC(=O)[C@H](CC(=O)O)NC(=O)[C@H](CCSC)NC(=O)[C@H](CCCNC(=N)N)NC(=O)CNC(=O)CNC(=O)[C@H](Cc2ccccc2)NC(=O)[C@@H](NC(=O)[C@H](CO)NC(=O)[C@H](CO)NC(=O)[C@H](CCCNC(=N)N)NC(=O)[C@H](CCCNC(=N)N)NC(=O)[C@H](CC(C)C)NC(=O)[C@@H](N)CO)CSSC[C@@H](C(=O)N[C@@H](CC(N)=O)C(=O)N[C@@H](CO)C(=O)N[C@@H](Cc2ccccc2)C(=O)N[C@@H](CCCNC(=N)N)C(=O)N[C@@H](Cc2ccc(O)cc2)C(=O)O)NC(=O)CNC(=O)[C@H](CC(C)C)NC(=O)CNC(=O)[C@H](CO)NC(=O)[C@H](CCC(N)=O)NC(=O)[C@H](C)NC(=O)CNC1=O` [hANP], the “tumor growth as compared with the control group” value is reported as “showed an effect of tumor growth suppression”.
